Experimental data: patent US20260151516A1, “NEW PET TRACER FOR IMAGING OF THE FUNCTIONAL HEPATIC RESERVE” (Medizinische Universität Innsbruck, priority 2022, published 2026)
“And” between values parts separate entries of the source, which are not always exact repeats. Identical values can stand only once.

What was measured:
[1] = Partition coefficient (log D), n-Octanol/PBS; assay type: physicochemical
Experimental: The vials were vortexed for 5 min at 1,500 rpm and then centrifuged for 5 min at 20,000 rcf (Eppendorf Centrifuge 5424).

[2] = Ligand stability in human blood serum (radio-HPLC); assay type: in vitro ADME; details: for Serum stability (% of intact ligand): 37° C.
Experimental: (§1) Ligand stability in human blood serum (n=2) and PBS (n=1) was determined for different time points (2 min, 30 min, 60 min, 120 min). Therefore, approx. 5 MBq of radioligand was added to 1 mL of fresh human serum or PBS and incubated at 37° C. At each given time point 100 μL of the mixture were transferred to a 1.5 mL Eppendorf tube containing 100 μL of acetonitrile. The vial was vortexed and centrifuged for 2 min at 14,000 rpm before 100 μL of the supernatant were diluted with 200 μL of water and injected into analytical radio-HPLC. The PBS solution was directly injected into the radio-HPLC. Ligand stability was determined by integrating the areas of the signals in the radio chromatogram in relation to the signal of the intact ligand.

[3] = Biodistribution studies incl. blocking experiments; assay type: in vivo; details: healthy BALB/c mice
Experimental: For biodistribution studies 6 week old female BALB/c mice (n=3) were injected with 0.1 nmol (100 μL, approx. 1 MBq) of labelled compound via the lateral tail vein and sacrificed after 10, 30, or 60 min by cervical dislocation. The mice were dissected, blood and organs (spleen, pancreas, stomach, intestine, liver, kidney, heart, lung, muscle, and bone) were weighed, and their activity measured in a γ-counter. For blocking experiments, mice were co-injected with 100 μL of a 277 mM Galactose/PBS solution. In case of [^68Ga]Ga-TRAP-GalNAc a 277 mM N-Acetylgalactose solution was used.

[4] = Ligand stability in PBS (radio-HPLC); assay type: physicochemical; details: 37° C., over the time course of 2 h
Experimental: as §1

human serum = experiment: Protein binding in fresh human serum (Sephadex MicroSpin G-50 columns); assay type: in vitro ADME; details: 37° C.
Experimental: Protein binding was determined for different time points (2 min, 30 min, 60 min, 120 min) in triplicates using Sephadex MicroSpin G-50 columns (GE-Healthcare, Chicago, Illinois, USA). The columns were spun initially at 20,000 rcf for 1 min to remove the storage buffer. Then approx. 5 MBq of radioligand was added to 1 mL of fresh human serum and incubated at 37° C. At each given timepoint 25 μL of the mixture was loaded on to the column, which was then spun at 20,000 rcf for 1 min. The activity content on the column (free radioligand) and in the filtrate (protein bound fraction) was quantified in a γ-counter.

[5] = 30 min p.i., blocking with 277 mM galactose

O=C(CCP(=O)([O-])CN1CCN(CP(=O)([O-])CCC(=O)NCc2cn(CCOCCOCCO[C@@H]3O[C@H](CO)[C@H](O)[C@H](O)[C@H]3O)nn2)CCN(CP(=O)([O-])CCC(=O)NCc2cn(CCOCCOCCO[C@@H]3O[C@H](CO)[C@H](O)[C@H](O)[C@H]3O)nn2)CC1)NCc1cn(CCOCCOCCO[C@@H]2O[C@H](CO)[C@H](O)[C@H](O)[C@H]2O)nn1.[68Ga+3] [[^68Ga]Ga-TRAP-Galactan]
logD [1]: −4.26±0.08
Serum stability (% of intact ligand) ([2]; 2 min): 97.7 ± 0.3%
Serum stability (% of intact ligand) ([2]; 30 min): 97.6 ± 0.2%
Serum stability (% of intact ligand) ([2]; 60 min): 97.6 ± 0.1%
Serum stability (% of intact ligand) ([2]; 120 min): 97.9 ± 0.1%
Stability in human blood serum (% intact tracer) ([2]; over the time course of 2 h): > 98%
Biodistribution Blood ([3]; 10 min p.i.): 3.66 ± 0.2 % ID/g
Biodistribution Femur ([3]; 10 min p.i.): 0.85 ± 0.33 % ID/g
Biodistribution Heart ([3]; 10 min p.i.): 1.28 ± 0.06 % ID/g
Biodistribution Intestine ([3]; 10 min p.i.): 1.24 ± 0.05 % ID/g
Biodistribution Kidneys ([3]; 10 min p.i.): 7.4±2.1 % ID/g and 7.39 ± 2.1 % ID/g
Biodistribution Liver ([3]; 10 min p.i.): 24.6±1.6 % ID/g
Biodistribution Lung ([3]; 10 min p.i.): 2.31 ± 0.17 % ID/g
Biodistribution Muscle ([3]; 10 min p.i.): 0.91 ± 0.08 % ID/g
Biodistribution Pancreas ([3]; 10 min p.i.): 0.87 ± 0.01 % ID/g
Biodistribution Spleen ([3]; 10 min p.i.): 0.84 ± 0.08 % ID/g
Biodistribution Stomach ([3]; 10 min p.i.): 1.22 ± 0.20 % ID/g
Biodistribution Blood ([3]; 30 min p.i.): 1.6 ± 0.11 % ID/g
Biodistribution Femur ([3]; 30 min p.i.): 0.32 ± 0.05 % ID/g
Biodistribution Heart ([3]; 30 min p.i.): 0.65 ± 0.08 % ID/g
Biodistribution Intestine ([3]; 30 min p.i.): 2.18 ± 0.10 % ID/g
Biodistribution Kidneys ([3]; 30 min p.i.): 4.33 ± 0.35 % ID/g
Biodistribution Liver ([3]; 30 min p.i.): 29.7±1.7 % ID/g
Biodistribution Lung ([3]; 30 min p.i.): 1.09 ± 0.03 % ID/g
Biodistribution Muscle ([3]; 30 min p.i.): 0.37 ± 0.02 % ID/g
Biodistribution Pancreas ([3]; 30 min p.i.): 0.53 ± 0.01 % ID/g
Biodistribution Spleen ([3]; 30 min p.i.): 0.42 ± 0.07 % ID/g
Biodistribution Stomach ([3]; 30 min p.i.): 1.00 ± 0.27 % ID/g
Biodistribution Blood [3, 5]: 1.35 ± 0.52 % ID/g
Biodistribution Femur [3, 5]: 0.27 ± 0.09 % ID/g
Biodistribution Heart [3, 5]: 0.44 ± 0.09 % ID/g
Biodistribution Intestine [3, 5]: 1.02 ± 0.18 % ID/g
Biodistribution Kidneys [3, 5]: 3.70 ± 0.53 % ID/g
Biodistribution Liver [3, 5]: 10.6 ± 1.4 % ID/g
Biodistribution Lung [3, 5]: 0.86 ± 0.14 % ID/g
Biodistribution Muscle [3, 5]: 0.30 ± 0.04 % ID/g
Biodistribution Pancreas [3, 5]: 0.37 ± 0.04 % ID/g
Biodistribution Spleen [3, 5]: 0.29 ± 0.03 % ID/g
Biodistribution Stomach [3, 5]: 0.49 ± 0.07 % ID/g
Biodistribution Blood ([3]; 60 min p.i.): 0.3±0.09 % ID/g
Biodistribution Femur ([3]; 60 min p.i.): 0.13 ± 0.03 % ID/g
Biodistribution Heart ([3]; 60 min p.i.): 0.16 ± 0.02 % ID/g
Biodistribution Intestine ([3]; 60 min p.i.): 2.8±0.2 % ID/g and 2.80 ± 0.24 % ID/g
Biodistribution Kidneys ([3]; 60 min p.i.): 1.72 ± 0.17 % ID/g
Biodistribution Liver ([3]; 60 min p.i.): 25.0 ± 1.1 % ID/g
Biodistribution Lung ([3]; 60 min p.i.): 0.32 ± 0.05 % ID/g
Biodistribution Muscle ([3]; 60 min p.i.): 0.15 ± 0.03 % ID/g
Biodistribution Pancreas ([3]; 60 min p.i.): 0.16 ± 0.02 % ID/g
Biodistribution Spleen ([3]; 60 min p.i.): 0.17 ± 0.07 % ID/g
Biodistribution Stomach ([3]; 60 min p.i.): 0.31 ± 0.21 % ID/g
Stability in PBS (% intact tracer) [4]: > 99%
Protein binding (%) (human serum; 2 min): 8.2±3.4%
Protein binding (%) (human serum; 30 min): 6.4 ± 1.8%
Protein binding (%) (human serum; 60 min): 12.0 ± 3.1%
Protein binding (%) (human serum; 120 min): 11.6±2.2%
